Measurements from PubChem BioAssay (NCI).
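In this assay, cells in 96-well plates receive the compound at five concentrations for 48 hours. Endpoints are linearly interpolated between the surrounding concentrations. TGI marks complete inhibition of growth.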

Key:
Test in all cases: NCI tumour cell line growth inhibition, 48 h
DU-145 prostate = system: DU-145 prostate
LOX IMVI melanoma = system: LOX IMVI melanoma
NCI/ADR-RES ovarian = system: NCI/ADR-RES ovarian
KM12 colon = system: KM12 colon
MOLT-4 leukemia = system: MOLT-4 leukemia
MCF7 breast = system: MCF7 breast
HT29 colon = system: HT29 colon
SW-620 colon = system: SW-620 colon
HS 578T breast = system: HS 578T breast
EKVX NSCLC = system: EKVX NSCLC
PC-3 prostate = system: PC-3 prostate
MDA-MB-435 = system: MDA-MB-435
OVCAR-4 ovarian = system: OVCAR-4 ovarian
BT-549 breast = system: BT-549 breast
SR leukemia = system: SR leukemia
A549 NSCLC = system: A549 NSCLC
MALME-3M melanoma = system: MALME-3M melanoma
CCRF-CEM leukemia = system: CCRF-CEM leukemia
UACC-62 melanoma = system: UACC-62 melanoma
786-0 renal = system: 786-0 renal
M14 melanoma = system: M14 melanoma
K-562 leukemia = system: K-562 leukemia
HL-60(TB) leukemia = system: HL-60(TB) leukemia
SF-268 CNS = system: SF-268 CNS
MDA-N = system: MDA-N
SF-539 CNS = system: SF-539 CNS
OVCAR-3 ovarian = system: OVCAR-3 ovarian
RPMI-8226 leukemia = system: RPMI-8226 leukemia
SF-295 CNS = system: SF-295 CNS
ACHN renal = system: ACHN renal
NCI-H226 lung = system: NCI-H226 lung
NCI-H522 lung = system: NCI-H522 lung
SNB-75 CNS = system: SNB-75 CNS
SK-OV-3 ovarian = system: SK-OV-3 ovarian
IGROV1 ovarian = system: IGROV1 ovarian
HOP-62 NSCLC = system: HOP-62 NSCLC
RXF 393 renal = system: RXF 393 renal
HCT-116 colon = system: HCT-116 colon
HCT-15 colon = system: HCT-15 colon
CAKI-1 renal = system: CAKI-1 renal
OVCAR-8 ovarian = system: OVCAR-8 ovarian
UO-31 renal = system: UO-31 renal
NCI-H23 lung = system: NCI-H23 lung
T-47D breast = system: T-47D breast
UACC-257 melanoma = system: UACC-257 melanoma
NCI-H460 lung = system: NCI-H460 lung
COLO 205 colon = system: COLO 205 colon
MDA-MB-231 breast = system: MDA-MB-231 breast
SNB-19 CNS = system: SNB-19 CNS
OVCAR-5 ovarian = system: OVCAR-5 ovarian
SK-MEL-28 melanoma = system: SK-MEL-28 melanoma
U251 CNS = system: U251 CNS
SK-MEL-5 melanoma = system: SK-MEL-5 melanoma
SN12C renal = system: SN12C renal
HCC-2998 colon = system: HCC-2998 colon
HOP-92 NSCLC = system: HOP-92 NSCLC
TK-10 renal = system: TK-10 renal
SK-MEL-2 melanoma = system: SK-MEL-2 melanoma

With `Cc1n[nH]c(=O)n1C1CC1` the TGI (DU-145 prostate) was greater than 100 µM, the TGI (LOX IMVI melanoma) was greater than 100 µM and the TGI (NCI/ADR-RES ovarian) was greater than 100 µM. For the same molecule, the TGI (KM12 colon) was greater than 100 µM, the TGI (MOLT-4 leukemia) was greater than 100 µM and the TGI (MCF7 breast) was greater than 100 µM. The TGI (HT29 colon) was greater than 100 µM, the TGI (SW-620 colon) was greater than 100 µM and the TGI (HS 578T breast) was greater than 100 µM. For the same molecule, the TGI (EKVX NSCLC) was greater than 100 µM, the TGI (PC-3 prostate) was greater than 100 µM and the TGI (MDA-MB-435) was greater than 100 µM. The TGI (OVCAR-4 ovarian) was greater than 100 µM, the TGI (BT-549 breast) was greater than 100 µM and the TGI (SR leukemia) was greater than 100 µM. For the same molecule, the TGI (A549 NSCLC) was greater than 100 µM, the TGI (MALME-3M melanoma) was greater than 100 µM and the TGI (CCRF-CEM leukemia) was greater than 100 µM. The TGI (UACC-62 melanoma) was greater than 100 µM, the TGI (786-0 renal) was greater than 100 µM and the TGI (M14 melanoma) was greater than 100 µM. For the same molecule, the TGI (K-562 leukemia) was greater than 100 µM, the TGI (HL-60(TB) leukemia) was greater than 100 µM and the TGI (SF-268 CNS) was greater than 100 µM. For the same molecule, the TGI (MDA-N) was greater than 100 µM, the TGI (SF-539 CNS) was greater than 100 µM and the TGI (OVCAR-3 ovarian) was greater than 100 µM. The TGI (RPMI-8226 leukemia) was greater than 100 µM, the TGI (SF-295 CNS) was greater than 100 µM and the TGI (ACHN renal) was greater than 100 µM. For the same molecule, the TGI (NCI-H226 lung) was greater than 100 µM, the TGI (NCI-H522 lung) was greater than 100 µM and the TGI (SNB-75 CNS) was greater than 100 µM. The TGI (SK-OV-3 ovarian) was greater than 100 µM, the TGI (IGROV1 ovarian) was greater than 100 µM and the TGI (HOP-62 NSCLC) was greater than 100 µM. For the same molecule, the TGI (RXF 393 renal) was greater than 100 µM, the TGI (HCT-116 colon) was greater than 100 µM and the TGI (HCT-15 colon) was greater than 100 µM. The TGI (CAKI-1 renal) was greater than 100 µM, the TGI (OVCAR-8 ovarian) was greater than 100 µM and the TGI (UO-31 renal) was greater than 100 µM. It also gave a TGI (NCI-H23 lung) greater than 100 µM, a TGI (T-47D breast) greater than 100 µM and a TGI (UACC-257 melanoma) greater than 100 µM. The TGI (NCI-H460 lung) was greater than 100 µM, the TGI (COLO 205 colon) was greater than 100 µM and the TGI (MDA-MB-231 breast) was greater than 100 µM. The TGI (SNB-19 CNS) was greater than 100 µM, the TGI (OVCAR-5 ovarian) was greater than 100 µM and the TGI (SK-MEL-28 melanoma) was greater than 100 µM. The TGI (U251 CNS) was greater than 100 µM, the TGI (SK-MEL-5 melanoma) was greater than 100 µM and the TGI (SN12C renal) was greater than 100 µM. It also gave a TGI (HCC-2998 colon) greater than 100 µM and a TGI (HOP-92 NSCLC) greater than 100 µM.
For `O=c1[nH]c2nc3ccccc3c(=O)n2/c1=C/c1ccccc1`, the TGI (DU-145 prostate) was greater than 100 µM, the TGI (LOX IMVI melanoma) was greater than 100 µM and the TGI (NCI/ADR-RES ovarian) was greater than 100 µM. It also gave a TGI (KM12 colon) greater than 100 µM, a TGI (MOLT-4 leukemia) greater than 100 µM and a TGI (MCF7 breast) greater than 100 µM. It also gave a TGI (HT29 colon) of 39.1 µM, a TGI (SW-620 colon) of 47.6 µM and a TGI (HS 578T breast) greater than 100 µM. The TGI (EKVX NSCLC) was greater than 100 µM, the TGI (PC-3 prostate) was greater than 100 µM and the TGI (MDA-MB-435) was 59 µM. It also gave a TGI (OVCAR-4 ovarian) greater than 100 µM, a TGI (BT-549 breast) of 53.8 µM and a TGI (SR leukemia) greater than 100 µM. It also gave a TGI (A549 NSCLC) greater than 100 µM, a TGI (MALME-3M melanoma) greater than 100 µM and a TGI (CCRF-CEM leukemia) greater than 100 µM. It also gave a TGI (UACC-62 melanoma) greater than 100 µM, a TGI (786-0 renal) of 96.6 µM and a TGI (M14 melanoma) greater than 100 µM. For the same molecule, the TGI (TK-10 renal) was greater than 100 µM, the TGI (HL-60(TB) leukemia) was greater than 100 µM and the TGI (SF-268 CNS) was greater than 100 µM. The TGI (MDA-N) was 78.5 µM, the TGI (SF-539 CNS) was 44.9 µM and the TGI (OVCAR-3 ovarian) was greater than 100 µM. The TGI (RPMI-8226 leukemia) was greater than 100 µM, the TGI (SF-295 CNS) was greater than 100 µM and the TGI (ACHN renal) was greater than 100 µM. The TGI (NCI-H226 lung) was greater than 100 µM, the TGI (NCI-H522 lung) was greater than 100 µM and the TGI (SNB-75 CNS) was 99.4 µM. For the same molecule, the TGI (SK-OV-3 ovarian) was greater than 100 µM, the TGI (SK-MEL-2 melanoma) was greater than 100 µM and the TGI (IGROV1 ovarian) was greater than 100 µM. It also gave a TGI (HOP-62 NSCLC) greater than 100 µM, a TGI (RXF 393 renal) greater than 100 µM and a TGI (HCT-116 colon) greater than 100 µM. It also gave a TGI (HCT-15 colon) greater than 100 µM, a TGI (CAKI-1 renal) greater than 100 µM and a TGI (OVCAR-8 ovarian) greater than 100 µM. For the same molecule, the TGI (UO-31 renal) was greater than 100 µM, the TGI (NCI-H23 lung) was greater than 100 µM and the TGI (T-47D breast) was greater than 100 µM. The TGI (UACC-257 melanoma) was greater than 100 µM, the TGI (COLO 205 colon) was greater than 100 µM and the TGI (MDA-MB-231 breast) was greater than 100 µM. The TGI (SNB-19 CNS) was 55.9 µM, the TGI (OVCAR-5 ovarian) was greater than 100 µM and the TGI (SK-MEL-28 melanoma) was greater than 100 µM. For the same molecule, the TGI (U251 CNS) was greater than 100 µM, the TGI (SK-MEL-5 melanoma) was greater than 100 µM and the TGI (SN12C renal) was 83.8 µM. It also gave a TGI (HCC-2998 colon) greater than 100 µM and a TGI (HOP-92 NSCLC) greater than 100 µM.
